Experimental data from patent US20140271847A1, “FORMULATIONS AND METHODS FOR RAPID PENILE ERECTIONS” (SatisPharma, LLC, priority 2013, published 2014).
Structures can show the parent of a compound that is named as a salt.

Experiments:
penis = test: Time to penile erection / firmness after taking the ED medication or formulation; assay type: in vivo, human; conditions: blood circulation limited to about 50%; for time it remains effective / time to become effective: normal dose of 100 mg Viagra® or 10 mg Levitra®, one subject
Excerpt: Responses of individuals to ED medications may vary widely from one to another and from time to time. The nature and intensity of emotional and physical stimulation are significant factors, and the health of the individual can be significant. Fatigue, time of day, time since last coitus or ejaculation, and blood circulation are factors influencing response. One particular subject had no response to Cialis®. Their heart damage and occluded artery limit blood circulation to about 50%. Thus this particular subject is not a good benchmark for measuring the effectiveness of each formulation; this particular subject experiences a normal dose of 100 mg Viagra® or 10 mg Levitra® usually takes about 2 hours to become effective and then remains effective for about 8 hours (double the usual times for a person with normal blood circulation). Nevertheless, this subject has achieved erection and cotius within 30 minutes using some formulations of this invention.

[1] = cited from earlier work
[2] = Solubilities of ED medications in solvents known to permeate the skin (Example 1); assay type: physicochemical
Description: A series of experiments were performed in order to learn the solubilities of ED medications in solvents known to permeate the skin safely.

[3] = Solubility of ED medications as stated in the description; assay type: physicochemical
Excerpt: In order for an ED medication to be absorbed into mucosal tissues, it must first be dissolved in a medium of transport. […] Sildenafil citrate is also more soluble in ethanol than water and in propylene glycol than in water.

Row | Structure (SMILES) | response to ED medication (penis; one particular subject) | solubility in water (in words) [1] | time it remains effective (penis) | time to become effective (penis) | solubility in alcohols (in words) ([1]; alcohols) | Result (solubility) ([2]; 35 mg sildenafil citrate in diethylene glycol monoethyl ether, 10 ml) | Result (solubility) ([2]; 35 mg sildenafil citrate in ethanol, 190 proof, 10 ml) | Result (solubility) ([2]; 35 mg sildenafil citrate in glycerin, 10 ml + citric acid, 150 mg) | Result (solubility) ([2]; 35 mg sildenafil citrate in isopropyl myristate, 10 ml) | Result (solubility) ([2]; 35 mg sildenafil citrate in propylene glycol, 10 ml) | Result (solubility) ([2]; 35 mg sildenafil citrate in triacetin 10 ml) | Result (solubility) ([2]; 49 mg sildenafil citrate in nicotine, 2 ml) | Result (solubility) ([2]; 70 mg sildenafil citrate in ethanol, 190 proof, 10 ml) | Result (solubility) ([2]; 70 mg sildenafil citrate in propylene glycol, 10 ml) | solubility in nicotine [3] | solubility in ethanol compared with water ([1]; ethanol versus water) | solubility in propylene glycol compared with water ([1]; propylene glycol versus water) | solubility in water relative to pH 7.0 ([1]; water at pH=4, relative to 3.5 mg/ml at pH=7.0) | solubility in water ([1]; water at pH=7.0)
1 | CN1CC(=O)N2[C@H](c3ccc4c(c3)OCO4)c3[nH]c4ccccc4c3C[C@@H]2C1=O [Tadalafil, tadalafil] | no response | freely soluble |  |  |  |  |  |  |  |  |  |  |  |  |  |  |  |  | 
2 | CCCc1nc(C)c2c(=O)[nH]c(-c3cc(S(=O)(=O)N4CCN(CC)CC4)ccc3OCC)nn12 [Vardenafil, vardenafil hydrochloride] |  | freely soluble | about 8 hours | about 2 hours | freely soluble |  |  |  |  |  |  |  |  |  |  |  |  |  | 
3 | CCCc1nn(C)c2c(=O)[nH]c(-c3cc(S(=O)(=O)N4CCN(C)CC4)ccc3OCC)nc12.O=C(O)CC(O)(CC(=O)O)C(=O)O [sildenafil citrate] |  |  | about 8 hours | about 2 hours |  | slightly soluble | fully soluble | dispersion | mostly soluble | fully soluble | dispersion | fully soluble | fully soluble | mostly soluble | surprisingly high solubility | more soluble | more soluble | about triple | 3500 µg/mL
